Experimental data published in PubChem BioAssay AID330 (DTP/NCI, 2004).
Inconclusive results and toxic doses are left out.

Tested on: P388 leukemia ip, CD2F1 mice, survival T/C
Assay: NCI In Vivo Anticancer Drug Screen. Data for tumor model P388 Leukemia (intraperitoneal) in CD2F1 (CDF1) mice
Details: endpoint: median survival time, higher = longer survival
Procedure, shortened: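 Mice carrying the transplanted tumor received test compound or vehicle. Survival was recorded in each group, and the value is the treated-group measurement divided by that of the vehicle-treated control group.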

[1] = dose: 60.0 mg/kg/injection, schedule: Q01DX005 (ip), vehicle: saline with Tween-80
[2] = dose: 120.0 mg/kg/injection, schedule: Q01DX005 (ip), vehicle: saline with Tween-80
[3] = dose: 240.0 mg/kg/injection, schedule: Q01DX005 (ip), vehicle: saline with Tween-80
[4] = dose: 50.0 mg/kg/injection, schedule: Q01DX009 (ip), vehicle: Klucel (hydroxypropylcellulose) (HPC)
[5] = dose: 100.0 mg/kg/injection, schedule: Q01DX009 (ip), vehicle: Klucel (hydroxypropylcellulose) (HPC)
[6] = dose: 50.0 mg/kg/injection, schedule: Q01DX009 (ip), vehicle: saline with Tween-80
[7] = dose: 100.0 mg/kg/injection, schedule: Q01DX009 (ip), vehicle: saline with Tween-80
[8] = dose: 200.0 mg/kg/injection, schedule: Q01DX009 (ip), vehicle: saline with Tween-80
[9] = dose: 100.0 mg/kg/injection, schedule: Q04DX002 (ip), vehicle: saline
[10] = dose: 200.0 mg/kg/injection, schedule: Q04DX002 (ip), vehicle: saline
[11] = dose: 50.0 mg/kg/injection, schedule: Q01DX009 (ip), vehicle: saline
[12] = dose: 100.0 mg/kg/injection, schedule: Q01DX009 (ip), vehicle: saline
[13] = dose: 200.0 mg/kg/injection, schedule: Q01DX009 (ip), vehicle: saline
[14] = dose: 400.0 mg/kg/injection, schedule: Q01DX009 (ip), vehicle: saline
[15] = dose: 100.0 mg/kg/injection, schedule: Q01DX001 (ip), vehicle: saline with Tween-80
[16] = dose: 200.0 mg/kg/injection, schedule: Q01DX001 (ip), vehicle: saline with Tween-80
[17] = dose: 400.0 mg/kg/injection, schedule: Q01DX001 (ip), vehicle: saline with Tween-80

Q: Which results are given for `C#CC(C)(C)NC(=O)NC12CC3CC(CC(C3)C1)C2`?
A: T/C (dose: 12.5 mg/kg/injection, schedule: Q01DX001 (ip), vehicle: saline with Tween-80): 94 % of control; T/C (dose: 25.0 mg/kg/injection, schedule: Q01DX001 (ip), vehicle: saline with Tween-80): 86 % of control; T/C (dose: 50.0 mg/kg/injection, schedule: Q01DX001 (ip), vehicle: saline with Tween-80): 89 % of control

Q: What does the source list for `Cc1cn(CCCn2cnc3c(=O)[nH]cnc32)c(=O)[nH]c1=O`?
A: T/C [1]: 92 % of control; T/C [2]: 101 % of control; T/C [3]: 88 % of control

Q: How did the T/C [4] turn out when `c1ccc2c(c1)ccc1c2nnc2nnnn21` was run?
A: 104 % of control

Q: And the T/C [5]?
A: 105 % of control

Q: What about the T/C (dose: 200.0 mg/kg/injection, schedule: Q01DX009 (ip), vehicle: Klucel (hydroxypropylcellulose) (HPC)) of the same compound?
A: 95 % of control

Q: What does the source list for `CC1(c2ccc(N)cc2)NC(=O)NC1=O` (stereo not given)?
A: T/C [4]: 99 % of control; T/C [5]: 96 % of control

Q: `Cc1cc(C(=O)O)c(C)c2c1sc1ccccc12` was tested. Which T/C [1] did it give?
A: 101 % of control

Q: What about the T/C [2] of the same compound?
A: 114 % of control

Q: Which results are given for `Cc1ccccc1NC(=O)Nc1sc(=S)c2c(c1C#N)CCCC2`?
A: T/C (dose: 50.0 mg/kg/injection, schedule: Q01DX005 (ip), vehicle: saline with Tween-80): 94 % of control; T/C (dose: 100.0 mg/kg/injection, schedule: Q01DX005 (ip), vehicle: saline with Tween-80): 103 % of control; T/C (dose: 200.0 mg/kg/injection, schedule: Q01DX005 (ip), vehicle: saline with Tween-80): 103 % of control

Q: How did the T/C (dose: 50.0 mg/kg/injection, schedule: Q01DX005 (ip), vehicle: saline) turn out when `NC(=O)C(CCCN=C(N)N)NC(=O)c1ccccc1` (stereo not given) was run?
A: 105 % of control

Q: What about the T/C (dose: 100.0 mg/kg/injection, schedule: Q01DX005 (ip), vehicle: saline) of the same compound?
A: 99 % of control

Q: What about the T/C (dose: 200.0 mg/kg/injection, schedule: Q01DX005 (ip), vehicle: saline) of the same compound?
A: 105 % of control

Q: With `O=[N+]([O-])c1ccccc1N=Nc1c(O)sc2ccccc12` as the compound, how does the T/C (dose: 50.0 mg/kg/injection, schedule: Q01DX005 (ip), vehicle: Klucel (hydroxypropylcellulose) (HPC)) read?
A: 98 % of control

Q: What about the T/C (dose: 100.0 mg/kg/injection, schedule: Q01DX005 (ip), vehicle: Klucel (hydroxypropylcellulose) (HPC)) of the same compound?
A: 96 % of control

Q: And the T/C (dose: 200.0 mg/kg/injection, schedule: Q01DX005 (ip), vehicle: Klucel (hydroxypropylcellulose) (HPC))?
A: 91 % of control

Q: Which T/C (dose: 60.0 mg/kg/injection, schedule: Q01DX005 (ip), vehicle: Klucel (hydroxypropylcellulose) (HPC)) does the source give for `CCOC(=O)c1ccc(NC(=O)Nc2ccc(OC)cc2Cl)cc1` here?
A: 91 % of control

Q: And the T/C (dose: 120.0 mg/kg/injection, schedule: Q01DX005 (ip), vehicle: Klucel (hydroxypropylcellulose) (HPC))?
A: 93 % of control

Q: And the T/C (dose: 240.0 mg/kg/injection, schedule: Q01DX005 (ip), vehicle: Klucel (hydroxypropylcellulose) (HPC))?
A: 96 % of control

Q: Which T/C (dose: 3.13 mg/kg/injection, schedule: Q01DX009 (ip), vehicle: distilled water + Tween-80) does the source give for `CNC(=O)OCc1c(COC(=O)NC)c(-c2ccc(SC)cc2)n(C)c1C` here?
A: 187 % of control

Q: And the T/C (dose: 12.5 mg/kg/injection, schedule: Q01DX009 (ip), vehicle: distilled water + Tween-80)?
A: 152 % of control

Q: And the T/C (dose: 50.0 mg/kg/injection, schedule: Q01DX009 (ip), vehicle: distilled water + Tween-80)?
A: 150 % of control

Q: How did the T/C [6] turn out when `CC(C)=C[Si](C)(C)C` was run?
A: 103 % of control

Q: What about the T/C [7] of the same compound?
A: 110 % of control

Q: What about the T/C [8] of the same compound?
A: 103 % of control

Q: For `COc1c2occc2c(NC(=O)C(F)(F)F)c2ccc(=O)oc12`, which T/C [9] is on record?
A: 100 % of control

Q: What about the T/C [10] of the same compound?
A: 101 % of control

Q: `Cc1ccc(S(=O)(=O)N/N=C/c2c(-c3ccc(-c4ccccc4)cc3)nc3sccn23)cc1` was tested. Which T/C (dose: 100.0 mg/kg/injection, schedule: Q01DX001 (ip), vehicle: Klucel (hydroxypropylcellulose) (HPC)) did it give?
A: 94 % of control

Q: What about the T/C (dose: 200.0 mg/kg/injection, schedule: Q01DX001 (ip), vehicle: Klucel (hydroxypropylcellulose) (HPC)) of the same compound?
A: 86 % of control

Q: What about the T/C (dose: 400.0 mg/kg/injection, schedule: Q01DX001 (ip), vehicle: Klucel (hydroxypropylcellulose) (HPC)) of the same compound?
A: 88 % of control

Q: With `Nc1[nH]cnc(=S)c1N` as the compound, how does the T/C (dose: 100.0 mg/kg/injection, schedule: Q04DX002 (ip), vehicle: saline with Tween-80) read?
A: 106 % of control

Q: What about the T/C (dose: 200.0 mg/kg/injection, schedule: Q04DX002 (ip), vehicle: saline with Tween-80) of the same compound?
A: 102 % of control

Q: What about the T/C (dose: 400.0 mg/kg/injection, schedule: Q04DX002 (ip), vehicle: saline with Tween-80) of the same compound?
A: 106 % of control

Q: For `O=C(O)C1=NN(c2ccc(S(=O)(=O)O)cc2)C(=O)C1N=Nc1ccc(S(=O)(=O)O)cc1` (stereo not given), which T/C [11] is on record?
A: 95 % of control

Q: What about the T/C [12] of the same compound?
A: 100 % of control

Q: And the T/C [13]?
A: 100 % of control

Q: And the T/C [14]?
A: 95 % of control

Q: With `CC(C)(C)c1ccc(OCc2cnc[nH]2)cc1` as the compound, how does the T/C (dose: 25.0 mg/kg/injection, schedule: Q01DX001 (ip), vehicle: saline) read?
A: 102 % of control

Q: What about the T/C (dose: 50.0 mg/kg/injection, schedule: Q01DX001 (ip), vehicle: saline) of the same compound?
A: 101 % of control

Q: What about the T/C (dose: 100.0 mg/kg/injection, schedule: Q01DX001 (ip), vehicle: saline) of the same compound?
A: 110 % of control

Q: How did the T/C [15] turn out when `CCCC(Sc1ccccc1)c1cc(OC)ccc1NC(C)=O` (stereo not given) was run?
A: 100 % of control

Q: And the T/C [16]?
A: 100 % of control

Q: What about the T/C [17] of the same compound?
A: 93 % of control

Q: With `O=C(/C=C/c1cn(C(=O)CCCl)c2ccccc12)c1cccc([N+](=O)[O-])c1` as the compound, how does the T/C [1] read?
A: 99 % of control

Q: And the T/C [2]?
A: 96 % of control

Q: What about the T/C [3] of the same compound?
A: 89 % of control

Q: `CCCCN(C(=O)c1ccccc1)c1nc2ccccc2n1C` was tested. Which T/C (dose: 100.0 mg/kg/injection, schedule: Q04DX003 (ip), vehicle: saline) did it give?
A: 95 % of control

Q: What about the T/C (dose: 200.0 mg/kg/injection, schedule: Q04DX003 (ip), vehicle: saline) of the same compound?
A: 98 % of control

Q: And the T/C (dose: 400.0 mg/kg/injection, schedule: Q04DX003 (ip), vehicle: saline)?
A: 99 % of control

Q: What does the source list for `COc1cc2c(cc1C(CC(C)O)c1cc(OC)c(OC)c(OC)c1)OCO2` (stereo not given)?
A: T/C [1]: 100 % of control; T/C [2]: 90 % of control; T/C [3]: 98 % of control

Q: For `C[S+](C)CCC[S+](C)C`, which T/C [11] is on record?
A: 105 % of control

Q: And the T/C [12]?
A: 99 % of control

Q: And the T/C [13]?
A: 105 % of control

Q: Which T/C (dose: 7.5 mg/kg/injection, schedule: Q01DX005 (ip), vehicle: saline with Tween-80) does the source give for `CC(=O)OC1C=CC(=O)C1` (stereo not given) here?
A: 122 % of control

Q: What about the T/C (dose: 15.0 mg/kg/injection, schedule: Q01DX005 (ip), vehicle: saline with Tween-80) of the same compound?
A: 116 % of control

Q: With `COC1CCC2(C)C(=CCC3C2CCC2(C)C(OCCOS(=O)(=O)c4ccc(C)cc4)CCC32)C1` (stereo not given) as the compound, how does the T/C [15] read?
A: 101 % of control

Q: What about the T/C [16] of the same compound?
A: 106 % of control

Q: And the T/C [17]?
A: 100 % of control

Q: `COC(=O)C(/C=[N+](\[O-])C1CCCCC1)=C(\C=[N+](/[O-])C1CCCCC1)C(=O)OC` was tested. Which T/C [1] did it give?
A: 102 % of control

Q: And the T/C [2]?
A: 87 % of control

Q: What about the T/C [3] of the same compound?
A: 91 % of control

Q: What does the source list for `O=C1NC(=O)[C@@]2(CC[C@@H](O)C2)c2ccncc21`?
A: T/C (dose: 1.5 mg/kg/injection, schedule: Q01DX009 (ip), vehicle: DMSO): 89 % of control; T/C (dose: 3.0 mg/kg/injection, schedule: Q01DX009 (ip), vehicle: DMSO): 93 % of control; T/C (dose: 6.0 mg/kg/injection, schedule: Q01DX009 (ip), vehicle: DMSO): 101 % of control; T/C (dose: 12.0 mg/kg/injection, schedule: Q01DX009 (ip), vehicle: DMSO): 95 % of control; T/C (dose: 25.0 mg/kg/injection, schedule: Q01DX005 (ip), vehicle: DMSO): 91 % of control; T/C (dose: 50.0 mg/kg/injection, schedule: Q01DX005 (ip), vehicle: DMSO): 96 % of control; T/C (dose: 100.0 mg/kg/injection, schedule: Q01DX005 (ip), vehicle: DMSO): 93 % of control; T/C (dose: 200.0 mg/kg/injection, schedule: Q01DX005 (ip), vehicle: DMSO): 92 % of control

Q: Which results are given for `Cc1ccc2[nH]c(=O)c(=O)[nH]c2c1`?
A: T/C (dose: 25.0 mg/kg/injection, schedule: Q01DX009 (ip), vehicle: saline with Tween-80): 119 % of control; T/C [6]: 103 % of control; T/C [7]: 105 % of control; T/C [8]: 104 % of control

Q: What does the source list for `CC1(C)C[C@H](OC2CCCCO2)[C@H]2O[C@@]2(C)C1` (stereo not given in full)?
A: T/C [9]: 103 % of control; T/C [10]: 102 % of control; T/C (dose: 400.0 mg/kg/injection, schedule: Q04DX002 (ip), vehicle: saline): 96 % of control

Q: Which T/C (dose: 25.0 mg/kg/injection, schedule: Q01DX009 (ip), vehicle: saline) does the source give for `CC(C)CC#N` here?
A: 90 % of control

Q: What about the T/C [11] of the same compound?
A: 100 % of control

Q: And the T/C [12]?
A: 100 % of control

Q: For `Cc1ccccc1N(C=O)c1ccccc1C`, which T/C [12] is on record?
A: 106 % of control

Q: And the T/C [13]?
A: 93 % of control

Q: What about the T/C [14] of the same compound?
A: 98 % of control
